Measurements as given in patent US6949655B2, “Acyclic piperidine derivatives” (priority 2001, dated 2005).

Test system: rat embryo ventral mesencephalic cells
Assay: Neuroprotection assay (NMDA-induced neuroexcitotoxic injury, 3H-dopamine uptake)
Type: cell-based, Sprague-Dawley rat
Details: VM cell culture, NMDA 100-400 μM for 20 hours, high affinity 3H-dopamine uptake
Description: The neuroprotective activity of the compounds of this invention may be assayed using rat embryo ventral mesencephalic cells in culture which are subsequently exposed to the glutamate receptor agonist NMDA. This assay is described in detail in the example section.
The ventral mesencephalic region was dissected out of embryonic day 15 Sprague-Dawley rat embryos (Harlan), dissociated into single cell suspension by a combination of trypsinization and trituration (Costantini et al., Neurobiol Dis., pp. 97-106 (1998). Dissociated VM cells were plated into poly-L-ornithine-coated 96-well plates at a density of 85,000 cells/well in 100 uL of DMEM supplemented with 18% heat-inactivated horse serum, 0.24% glucose, 2 mM glutamine and 50 u/ml pernicillin/streptomycin and incubated in a 5% CO2 incubator. After one day in culture (DIV1), the medium was replaced with 100 μL of a defined medium (DMEM supplemented with 1×N2 cocktail (Gibco-BRL), 0.12% glucose, 2 mM glutamine, and 50 units/ml penicillin/streptomycin) containing DMSO or various concentrations of the compounds of this invention. On DIV5, neuroexcitotoxic injury was induced by the addition of various concentrations of the glutamate receptor agonist NMDA (100-400 μM). Cultures were incubated with the neurotoxin for 20 hours and the effects of neurophilin compounds were assessed using high affinity ^3H-dopamine uptake according to a procedure published by Park and Mytilineou [Brain Res., 599, pp. 83-97 (1992)].

Structure (SMILES)	EC50 [nM]
CCN(CC(=O)N1CCN(c2ccccc2)CC1)Cc1ccccc1 [Compound 2]	> 500
CN(C)CC(=O)N1CCN(C(c2ccc(F)cc2)c2ccc(F)cc2)CC1 [Compound 12]	> 500
CCN(CC(=O)N1CCC(Cc2ccccc2)CC1)Cc1ccccc1 [Compound 6]	100 to 500
C[C@@H](c1ccccc1)N(C)CC(=O)N1CCN(c2ccccc2)CC1 [Compound 4]	> 500
C[C@@H](C(=O)N1CCN(c2ccc(F)cc2)CC1)N(C)Cc1ccccc1 [Compound 9, 2-(Benzyl-methylamino)-1-[4-(4-fluorophenyl)-piperazin-1-yl]-propan-1-one]	< 100
C[C@H](c1ccccc1)N(C)CC(=O)N1CCN(C(c2ccc(F)cc2)c2ccc(F)cc2)CC1 [Compound 17]	> 500
C[C@@H](C(=O)N1CCC(Cc2ccccc2)CC1)N(C)Cc1ccccc1 [Compound 5]	< 100
C[C@H](c1ccccc1)N(C)CC(=O)N1CCC(Cc2ccccc2)CC1 [Compound 7]	100 to 500
C[C@H](c1ccccc1)N(C)CC(=O)N1CCN(c2ccccc2)CC1 [Compound 3]	> 500
O=C(CN(Cc1ccccc1)Cc1ccccc1)N1CCC(Cc2ccccc2)CC1 [Compound 15]	> 500
C[C@@H](c1ccccc1)N(C)CC(=O)N1CCC(Cc2ccccc2)CC1 [Compound 8]	100 to 500
C[C@@H](C(=O)N1CCN(C(c2ccc(F)cc2)c2ccc(F)cc2)CC1)N(C)Cc1ccccc1 [Compound 19, 2-(Benzyl-methylamino)-1-{4-[bis-4-(4-fluorophenyl)-methyl]-piperazin-1-yl]-propan-1-one]	100 to 500
O=C(CN(Cc1ccccc1)Cc1ccccc1)N1CCN(c2ccccc2)CC1 [Compound 14]	> 500
C[C@@H](C(=O)N1CCC(Cc2ccc(F)cc2)CC1)N(C)Cc1ccccc1 [Compound 11, 2-(Benzyl-methylamino)-1-[4-(4-fluorobenzyl)-piperidin-1-yl]-propan-1-one]	< 100
CCN(CC(=O)N1CCN(C(c2ccc(F)cc2)c2ccc(F)cc2)CC1)Cc1ccccc1 [Compound 16]	> 500
CN(C)C1(C(=O)N2CCC(Cc3ccccc3)CC2)CCc2ccccc21 (centres unmarked) [Compound 10]	100 to 500
CCC(C)[C@@H](C(=O)N1CCC(Cc2ccccc2)CC1)N(C)Cc1ccccc1 (some centres unmarked) [Compound 13]	> 500
C[C@@H](c1ccccc1)N(C)CC(=O)N1CCN(C(c2ccc(F)cc2)c2ccc(F)cc2)CC1 [Compound 18]	> 500
CN(C)CC(=O)N1CCC(Cc2ccccc2)CC1 [Compound 1]	> 500
O=C(CN(Cc1ccccc1)Cc1ccccc1)N1CCN(C(c2ccc(F)cc2)c2ccc(F)cc2)CC1 [Compound 20]	> 500
